# From ChEMBL document CHEMBL1201862, “PubChem BioAssay data set” (2004)
# The source made the active and inactive calls.
# Legend:
# [1] = target: ATP-dependent molecular chaperone HSP82 (Candida albicans (strain WO-1) (Yeast), UniProt C4YTQ8); assay: loss of DOC-induced GRE-beta-galactosidase reporter signal, dose response, Hsp90 inhibitor project, S. cerevisiae, luminescence (AID 2400); type: functional, cell-based;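 further: beta-galactosidase luminescence from glucocorticoid response element reporter as proxy for Hsp90 function; inhibitor potency where signal loss means Hsp90 inhibition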
# [2] = NIH-3T3 fibroblast cytotoxicity, dose response, cytotoxicity control, cell-based, fluorescence, Alamar Blue, secondary assay (AID 2327); type: functional;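 further: NIH-3T3 mouse fibroblasts cultured with fluconazole at 8 µg/mL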
# [3] = cytotoxicity in MIN6 insulinoma cells, dose response, cytotoxicity control, cell-based, mouse insulinoma (AID 2122); type: functional;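 further: confirmatory high-throughput counterscreen run to flag cytotoxic compounds; mouse MIN-6 beta cells carrying an insulin promoter eGFP reporter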
# [4] = inhibitors of intracellular T. cruzi replication, confirmation, NIH3T3 host cells, beta-gal luminescence (AID 2044); type: functional, cell-based;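 further: intracellular parasites grown in NIH/3T3 mouse fibroblasts as host cells; luminescent beta-galactosidase reporter signal from transgenic T. cruzi replicating inside host cells; inhibitors lower the luminescence signal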
# [5] = C. albicans growth with fluconazole, confirmation, fluorescence, retest (AID 2467); type: functional, cell-based
# [6] = test system: INS1; assay: beta cell apoptosis inhibitors, cytokine rescue, dose response, luminescence, retest (AID 449756); type: functional, cell-based; settings: Rattus norvegicus;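 further: cell death triggered by IL-1 beta plus TNF-alpha plus IFN-gamma mixture; protective hits raise ATP signal compared with cytokine alone wells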
# [7] = insulin promoter down-regulators in MIN6 cells, imaging, high-content screening, mouse beta cells (AID 1628); type: functional
# [8] = target: T1, Serine/threonine-protein phosphatase (Candida dubliniensis (strain CD36 / CBS 7987 / NCPF 3949 / NRRLY-17841) (Yeast), UniProt B9W6M3); assay: calcineurin pathway inhibitors in yeast reporter, dose response, S. cerevisiae, CDRE-lacZ, luminescence, secondary (AID 2388); type: functional, cell-based;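 further: yeast reporter cells carrying a calcineurin-responsive lacZ construct stimulated with calcium chloride; luminescent beta-galactosidase reporter signal in whole cells rather than isolated phosphatase activity; potency for inhibition where a drop in reporter signal means calcineurin blockade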
# T1 sequence (B9W6M3 whole entry): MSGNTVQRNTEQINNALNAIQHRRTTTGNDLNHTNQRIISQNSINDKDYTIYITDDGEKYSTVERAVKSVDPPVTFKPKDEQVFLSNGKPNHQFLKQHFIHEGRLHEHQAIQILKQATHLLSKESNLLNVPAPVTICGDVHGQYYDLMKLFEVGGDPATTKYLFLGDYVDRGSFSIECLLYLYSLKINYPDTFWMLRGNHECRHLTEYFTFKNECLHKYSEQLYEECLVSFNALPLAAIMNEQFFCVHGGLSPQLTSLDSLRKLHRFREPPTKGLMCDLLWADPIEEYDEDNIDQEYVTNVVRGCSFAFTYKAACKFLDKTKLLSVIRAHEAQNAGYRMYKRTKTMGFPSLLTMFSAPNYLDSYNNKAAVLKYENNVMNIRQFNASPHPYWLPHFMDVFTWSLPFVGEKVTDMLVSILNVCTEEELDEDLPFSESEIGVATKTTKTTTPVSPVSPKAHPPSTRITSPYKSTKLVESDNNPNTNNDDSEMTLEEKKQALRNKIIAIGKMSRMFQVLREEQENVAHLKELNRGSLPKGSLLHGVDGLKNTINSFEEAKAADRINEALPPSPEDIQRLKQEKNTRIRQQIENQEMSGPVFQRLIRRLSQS
# [9] = target: Heat shock protein HSP 90-alpha (Homo sapiens, UniProt P07900); type: functional, organism-based
# [10] = cytotoxicity toward NIH3T3 fibroblasts, dose response, counter-screen, cell-based, ATP luminescence, mouse fibroblasts (AID 2010); type: functional;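 further: cells exposed to compound for about 90 hours before reading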
# [11] = target: T2, Microphthalmia-associated transcription factor (Homo sapiens, UniProt O75030); assay: TRPM1 promoter luciferase signal decrease, dose response, MITF inhibitor project, cell-based, SK-MEL-5, cherry-picked, set 3 (AID 493073); type: functional
# T2 sequence (O75030 whole entry): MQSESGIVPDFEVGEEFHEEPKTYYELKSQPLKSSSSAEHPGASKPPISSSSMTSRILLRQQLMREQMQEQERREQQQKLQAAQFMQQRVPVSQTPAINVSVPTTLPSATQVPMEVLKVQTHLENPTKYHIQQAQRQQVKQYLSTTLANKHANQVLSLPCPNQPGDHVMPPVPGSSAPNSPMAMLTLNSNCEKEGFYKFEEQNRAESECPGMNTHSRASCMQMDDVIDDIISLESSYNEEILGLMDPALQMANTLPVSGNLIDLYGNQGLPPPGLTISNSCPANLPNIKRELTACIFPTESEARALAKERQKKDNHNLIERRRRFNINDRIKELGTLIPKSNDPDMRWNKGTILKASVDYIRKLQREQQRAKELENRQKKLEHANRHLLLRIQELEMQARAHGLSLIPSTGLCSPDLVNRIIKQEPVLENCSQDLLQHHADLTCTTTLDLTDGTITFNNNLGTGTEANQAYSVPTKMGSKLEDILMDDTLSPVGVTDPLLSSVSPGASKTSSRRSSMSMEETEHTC
# [12] = target: T3, Bcl-2-related protein A1 (Mus musculus, UniProt Q07440); type: functional;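 further: confirmatory dose–response counterscreen on Bfl-1, used to check hits from a UBC13 polyubiquitin inhibitor campaign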
# T3 sequence (Q07440 whole entry): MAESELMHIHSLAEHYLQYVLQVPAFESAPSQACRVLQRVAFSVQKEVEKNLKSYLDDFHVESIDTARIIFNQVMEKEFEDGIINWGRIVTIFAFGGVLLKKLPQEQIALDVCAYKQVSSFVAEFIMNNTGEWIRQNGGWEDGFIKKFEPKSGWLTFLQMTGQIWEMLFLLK
# [13] = target: T4, Ubiquitin-conjugating enzyme E2 N (Homo sapiens, UniProt P61088); type: functional
# T4 sequence (P61088 whole entry): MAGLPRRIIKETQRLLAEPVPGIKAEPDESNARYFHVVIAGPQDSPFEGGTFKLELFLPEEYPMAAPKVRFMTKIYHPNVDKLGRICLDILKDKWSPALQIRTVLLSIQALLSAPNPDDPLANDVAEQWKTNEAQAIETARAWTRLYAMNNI
# [14] = target: T4, Ubiquitin-conjugating enzyme E2 N; type: functional; remark: listed apart in the source
# [15] = target: Cytochrome P450 2C19 (Homo sapiens, UniProt P33261); assay: Cytochrome panel assay with activity outcomes. Panel member name: p450-cyp2c19 Compounds with AC50 equal or less than 10 uM are considered active; type: functional
# [16] = test system: Vero; assay: Vero cell cytotoxicity, cytotoxicity control for flavivirus capping enzyme inhibitors (AID 588742); type: functional; settings: Chlorocebus sabaeus
# [17] = target: T5, Cytochrome P450 1A2 (Homo sapiens, UniProt P05177);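 further: PubChem cytochrome P450 panel assay, CYP1A2 panel member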
# T5 sequence (P05177 whole entry): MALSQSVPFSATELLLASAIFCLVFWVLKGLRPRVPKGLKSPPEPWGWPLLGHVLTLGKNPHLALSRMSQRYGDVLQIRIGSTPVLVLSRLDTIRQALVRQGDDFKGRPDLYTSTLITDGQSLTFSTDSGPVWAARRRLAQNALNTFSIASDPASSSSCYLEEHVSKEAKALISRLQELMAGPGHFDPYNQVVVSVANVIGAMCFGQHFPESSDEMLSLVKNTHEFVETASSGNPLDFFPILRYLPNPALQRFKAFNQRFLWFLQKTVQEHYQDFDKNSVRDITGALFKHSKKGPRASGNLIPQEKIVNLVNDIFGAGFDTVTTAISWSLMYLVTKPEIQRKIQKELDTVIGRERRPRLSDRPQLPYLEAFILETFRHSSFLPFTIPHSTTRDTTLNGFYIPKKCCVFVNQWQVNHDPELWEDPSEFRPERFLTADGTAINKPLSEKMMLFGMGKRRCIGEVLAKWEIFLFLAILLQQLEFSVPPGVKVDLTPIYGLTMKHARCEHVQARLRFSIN
# [18] = target: T6, RNA-binding protein pos-1 (Caenorhabditis elegans, UniProt G5EF15); assay: inhibitors of POS-1/mex-3 RNA binding, dose response, biochemical, fluorescence polarization (AID 1964);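 further: purified POS-1 fused to maltose binding protein made in E. coli; potency of compounds blocking POS-1 binding to fluorescent RNA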
# T6 sequence (G5EF15 whole entry): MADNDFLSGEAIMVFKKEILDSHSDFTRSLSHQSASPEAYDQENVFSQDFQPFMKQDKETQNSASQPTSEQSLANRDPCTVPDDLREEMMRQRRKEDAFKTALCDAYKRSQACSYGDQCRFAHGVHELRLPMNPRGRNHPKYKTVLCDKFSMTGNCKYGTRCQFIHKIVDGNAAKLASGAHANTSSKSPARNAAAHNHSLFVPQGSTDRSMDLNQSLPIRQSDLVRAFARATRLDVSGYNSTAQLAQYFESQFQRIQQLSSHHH
# [19] = target: Cytochrome P450 2C9 (Homo sapiens, UniProt P11712)
# [20] = target: T7, Zinc finger protein mex-5 (Caenorhabditis elegans, UniProt Q9XUB2); assay: MEX-5/TCR-2 RNA interaction inhibitors, dose response, biochemical, C. elegans, fluorescence polarization (AID 1960)
# T7 sequence (Q9XUB2 whole entry): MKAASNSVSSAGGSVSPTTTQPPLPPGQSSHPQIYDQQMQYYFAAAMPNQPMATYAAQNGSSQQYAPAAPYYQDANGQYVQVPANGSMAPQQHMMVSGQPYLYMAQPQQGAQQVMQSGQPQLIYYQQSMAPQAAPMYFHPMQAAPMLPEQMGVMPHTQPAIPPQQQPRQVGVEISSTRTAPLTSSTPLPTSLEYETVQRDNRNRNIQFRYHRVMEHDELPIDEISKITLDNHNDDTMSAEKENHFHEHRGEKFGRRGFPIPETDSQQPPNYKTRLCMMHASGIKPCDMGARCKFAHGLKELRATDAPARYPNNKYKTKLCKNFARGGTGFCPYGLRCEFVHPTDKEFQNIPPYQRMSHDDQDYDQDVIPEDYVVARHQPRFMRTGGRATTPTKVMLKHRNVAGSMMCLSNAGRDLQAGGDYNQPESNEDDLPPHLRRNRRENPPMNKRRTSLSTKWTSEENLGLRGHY
# [21] = target: Genome polyprotein (dengue virus type 2, UniProt P29990); assay: Dengue-2 NS5 methyltransferase inhibitors, primary screen, biochemical, confirmation dose response (AID 588689); type: functional
# [22] = target: T8, High affinity choline transporter 1 (Homo sapiens, UniProt Q9GZV3); assay: CHT inhibitors, dose response, cell-based, 10-point CRC, membrane potential dye (AID 588401); type: functional;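 further: membrane potential dye fluorescence of choline-evoked depolarization via CHT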
# T8 sequence (Q9GZV3 whole entry): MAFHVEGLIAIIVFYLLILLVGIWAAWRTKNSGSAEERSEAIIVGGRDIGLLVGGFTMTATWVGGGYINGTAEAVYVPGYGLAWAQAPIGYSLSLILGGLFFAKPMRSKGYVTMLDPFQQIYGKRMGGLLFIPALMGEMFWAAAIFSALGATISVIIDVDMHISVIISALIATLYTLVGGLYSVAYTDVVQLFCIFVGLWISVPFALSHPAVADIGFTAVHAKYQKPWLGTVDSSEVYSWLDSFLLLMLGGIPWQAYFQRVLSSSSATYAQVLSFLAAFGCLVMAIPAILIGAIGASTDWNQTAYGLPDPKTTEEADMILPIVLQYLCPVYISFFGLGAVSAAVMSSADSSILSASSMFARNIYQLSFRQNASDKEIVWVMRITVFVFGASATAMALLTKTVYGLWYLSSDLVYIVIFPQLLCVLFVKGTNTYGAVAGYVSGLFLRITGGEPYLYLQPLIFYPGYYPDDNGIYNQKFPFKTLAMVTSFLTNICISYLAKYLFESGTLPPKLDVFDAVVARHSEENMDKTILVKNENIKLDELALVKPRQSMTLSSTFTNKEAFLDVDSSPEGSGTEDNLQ
# [23] = target: T8, High affinity choline transporter 1; assay: CHT inhibitors, dose response, cell-based, 5-point CRC, membrane potential dye (AID 504840); type: functional
# [24] = test system: P388/ADR; assay: cells; type: functional; settings: Mus musculus
# [25] = test system: SN12K1; assay: cells; type: functional; settings: Homo sapiens
# [26] = test system: P388; assay: cells; type: functional; settings: Mus musculus
# [27] = Luminescence Cell-Based Dose Confirmation HTS to Identify Inhibitors of Platelet Dense Granule Release. [Related pubchem assays: 1663 (Primary HTS), 1678 (Summary of Project)]; type: functional
# Sequence of ATP-dependent molecular chaperone HSP82 (C4YTQ8 whole entry): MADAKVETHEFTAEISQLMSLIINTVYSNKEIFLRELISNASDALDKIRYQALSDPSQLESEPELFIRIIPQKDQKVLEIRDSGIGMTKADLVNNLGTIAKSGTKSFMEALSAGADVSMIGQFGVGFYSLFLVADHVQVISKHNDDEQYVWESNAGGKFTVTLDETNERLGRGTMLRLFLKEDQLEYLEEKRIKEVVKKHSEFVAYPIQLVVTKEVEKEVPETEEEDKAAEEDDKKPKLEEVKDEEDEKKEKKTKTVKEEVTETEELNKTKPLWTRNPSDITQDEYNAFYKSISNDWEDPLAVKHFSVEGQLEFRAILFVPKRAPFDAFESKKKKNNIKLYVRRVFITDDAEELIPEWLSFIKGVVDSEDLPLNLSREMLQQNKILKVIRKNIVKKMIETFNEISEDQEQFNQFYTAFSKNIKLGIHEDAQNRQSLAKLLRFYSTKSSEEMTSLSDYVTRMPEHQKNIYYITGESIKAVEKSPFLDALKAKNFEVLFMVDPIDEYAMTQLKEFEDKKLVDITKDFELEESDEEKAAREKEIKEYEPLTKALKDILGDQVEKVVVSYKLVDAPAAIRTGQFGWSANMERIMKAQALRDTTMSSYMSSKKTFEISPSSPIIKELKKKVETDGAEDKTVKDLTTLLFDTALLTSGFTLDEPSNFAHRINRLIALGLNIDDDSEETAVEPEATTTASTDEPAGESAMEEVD
# Sequence of Cytochrome P450 2C19 (P33261 whole entry): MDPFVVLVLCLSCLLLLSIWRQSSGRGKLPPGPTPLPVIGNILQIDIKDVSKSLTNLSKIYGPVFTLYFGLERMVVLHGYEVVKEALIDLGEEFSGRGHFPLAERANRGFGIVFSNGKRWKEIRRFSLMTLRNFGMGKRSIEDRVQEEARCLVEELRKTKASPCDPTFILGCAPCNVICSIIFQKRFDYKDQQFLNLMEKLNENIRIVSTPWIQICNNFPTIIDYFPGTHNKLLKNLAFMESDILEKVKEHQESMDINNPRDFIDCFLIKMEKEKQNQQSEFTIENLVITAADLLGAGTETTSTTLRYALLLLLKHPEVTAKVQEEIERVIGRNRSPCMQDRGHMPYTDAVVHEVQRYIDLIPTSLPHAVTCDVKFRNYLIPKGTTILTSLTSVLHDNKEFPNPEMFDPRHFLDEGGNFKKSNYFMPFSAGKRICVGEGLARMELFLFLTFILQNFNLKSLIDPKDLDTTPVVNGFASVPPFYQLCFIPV
# Sequence of Cytochrome P450 2C9 (P11712 whole entry): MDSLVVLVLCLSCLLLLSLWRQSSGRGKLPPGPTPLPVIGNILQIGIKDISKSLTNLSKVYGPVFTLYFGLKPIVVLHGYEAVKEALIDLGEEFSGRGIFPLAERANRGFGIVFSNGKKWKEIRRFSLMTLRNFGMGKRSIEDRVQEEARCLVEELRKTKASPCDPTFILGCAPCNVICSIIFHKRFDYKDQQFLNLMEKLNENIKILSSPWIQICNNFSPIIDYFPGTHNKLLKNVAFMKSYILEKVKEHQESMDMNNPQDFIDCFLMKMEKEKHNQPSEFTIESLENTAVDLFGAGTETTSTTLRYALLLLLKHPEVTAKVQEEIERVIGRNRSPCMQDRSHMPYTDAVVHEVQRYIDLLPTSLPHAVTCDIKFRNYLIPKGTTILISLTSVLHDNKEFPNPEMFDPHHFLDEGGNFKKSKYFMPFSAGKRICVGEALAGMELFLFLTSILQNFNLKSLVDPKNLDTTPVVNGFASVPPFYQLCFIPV
# Sequence of Genome polyprotein (P29990 2492-3391 limits assumed): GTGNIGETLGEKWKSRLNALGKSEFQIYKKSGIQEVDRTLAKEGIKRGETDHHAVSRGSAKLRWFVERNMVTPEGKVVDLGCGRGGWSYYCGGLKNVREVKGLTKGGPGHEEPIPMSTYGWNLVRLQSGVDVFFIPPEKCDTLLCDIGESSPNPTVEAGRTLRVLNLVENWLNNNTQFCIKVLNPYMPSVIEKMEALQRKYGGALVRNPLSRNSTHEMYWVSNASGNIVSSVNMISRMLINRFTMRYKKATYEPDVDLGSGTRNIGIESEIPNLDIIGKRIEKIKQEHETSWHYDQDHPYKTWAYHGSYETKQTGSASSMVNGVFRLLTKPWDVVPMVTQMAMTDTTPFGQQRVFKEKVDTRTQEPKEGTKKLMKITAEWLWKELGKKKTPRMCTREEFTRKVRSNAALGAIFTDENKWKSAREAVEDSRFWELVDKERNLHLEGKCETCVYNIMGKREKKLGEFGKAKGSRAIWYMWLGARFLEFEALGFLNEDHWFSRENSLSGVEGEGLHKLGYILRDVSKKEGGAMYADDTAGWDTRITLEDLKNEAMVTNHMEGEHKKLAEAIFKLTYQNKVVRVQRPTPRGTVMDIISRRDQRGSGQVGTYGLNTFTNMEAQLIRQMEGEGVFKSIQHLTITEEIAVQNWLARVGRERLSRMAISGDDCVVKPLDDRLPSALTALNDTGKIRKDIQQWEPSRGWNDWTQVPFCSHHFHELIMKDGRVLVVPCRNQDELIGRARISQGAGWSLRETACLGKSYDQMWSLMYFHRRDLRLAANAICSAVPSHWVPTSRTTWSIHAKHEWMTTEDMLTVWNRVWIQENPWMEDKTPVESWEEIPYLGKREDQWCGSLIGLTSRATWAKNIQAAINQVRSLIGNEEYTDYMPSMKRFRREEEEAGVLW
smiles,measurement,setting,value
O=C(N/N=C/c1ccc(O)c2ncccc12)c1cccc(Br)c1,EC50,[1],22.2 µM (active)
same,EC50,[2],> 160 µM (inactive)
same,IC50,[3],1.68 µM (active)
same,EC50,[4],1.66 µM (active)
same,EC50,[5],0.729 µM (active)
same,AC50,[6],1.22 µM (active)
same,IC50,[7],1.67 µM (active)
same,EC50,[8],> 180 µM (inactive)
same,AC50,[9],3.83 µM (active)
same,EC50,[10],5.44 µM (active)
same,AC50,[11],7.28 µM (active)
Cn1cncc1C#Cc1c(-c2ccc(S(C)(=O)=O)cc2)sc2ccccc12,IC50,[12],> 20 µM (inactive)
same,IC50,[13],3.37 µM (active)
same,IC50,[14],8.84 µM (active)
Cc1nnc(NC(=O)CSc2ncnc3c2cnn3-c2ccccc2C)s1,EC50,[1],> 150 µM (inactive)
same,EC50,[2],> 150 µM (inactive)
same,EC50,[5],0.573 µM (active)
same,EC50,[8],> 180 µM (inactive)
same,AC50,[15],inconclusive
Cc1nn(-c2ccccn2)c2nc(-c3cccs3)cc(C(=O)NCc3ccco3)c12,CC50,[16],> 40 µM (active)
CC1(C)Cc2c(sc(NC(=O)C(=O)N3CCCC3)c2C(N)=O)CO1,IC50,[12],> 20 µM (inactive)
same,IC50,[13],1.47 µM (active)
same,IC50,[14],9.62 µM (active)
COc1cc(/C=N\Nc2ccc([N+](=O)[O-])cc2)ccc1OCC(=O)Nc1ccc(C)c(C)c1,AC50,[17],7.08 µM (inconclusive)
same,EC50,[18],> 300 µM (not active)
same,AC50,[19],3.16 µM (inconclusive)
same,EC50,[20],234 µM (inconclusive)
same,IC50,[21],26.3 µM (active)
same,CC50,[16],> 40 µM (active)
CN1CCN(c2oc(Cc3cccc4ccccc34)nc2C#N)CC1,IC50,[22],4.74 µM (active)
same,IC50,[23],1.66 µM (active)
Nc1ncnc2c1ncn2C1OC(CO)C(O)C1O (stereo not drawn),IC50,[22],0.515 µM (active)
same,GI50,[24],14.5 µM (inactive)
same,GI50,[25],> 74 µM (inactive)
same,GI50,[26],16.4 µM (inactive)
same,IC50,[23],0.588 µM (active)
same,EC50,[27],1.55 µM (active)
O=C(COC(=O)c1cc(-c2ccc(Cl)s2)nc2ccccc12)NCc1ccco1,CC50,[16],> 40 µM (active)
